Patent US20120231482A1, “METHOD, KIT OR DIAGNOSTIC FOR THE DETECTION OF REAGENTS WHICH INDUCE ALTERED CONTRACTILITY” (THE JOHNS HOPKINS UNIVERSITY, priority 2009, published 2012)
Marks after values point to notes of the source that are not given here.

What was measured:
skinned trabeculae = assay: Force-[Ca2+] relation in skinned trabeculae; assay type: cell-based, rat; details: after skinning; NCA
Method: FIG. 2. […] (A) Steady-state force-[Ca^2+]i relationship in intact trabeculae before and after NCA (20 μmol/L). n=5. See text for details. (B) Force-[Ca^2+] relation in skinned trabeculae before and after NCA (n=6). […] The muscles were treated with DTT (5 mM) for 10 min after 1st force-[Ca^2+] was obtained in the presence of NCA alone, and a second force-[Ca^2+] relation was obtained in the presence of NCA+DTT. n=3. (D) For comparison, steady-state force-[Ca^2+]i relationship in intact trabeculae before and after AS (500 μmol/L). n=5.
To further test this hypothesis, steady-state force-[Ca^2+]i relations were obtained by tetanizing the muscles in the presence of ryanodine.

myosin heavy chain β = target: T1, myosin heavy chain β (Rattus norvegicus, UniProt P02564); assay: Modified biotin switch assay, sites of HNO modification; assay type: biochemical
T1 construct: Rat myofibrillar preparations, as described in [7], were obtained from frozen ventricles (Pel Freez Biologicals); tissue Pel Freez Biologicals; host or cells: myofibrils from frozen rat ventricles
Method: (§1) Rat myofibrillar preparations, as described in [7], were obtained from frozen ventricles (Pel Freez Biologicals) minced in 20 volumes/tissue weight of 4° C. relax buffer (SRB (75 mM KCL, 10 mM imidazole pH 7.2, 2 mM MgCl2) plus 4 mM phosphocreatine, 1 mM ATP, 50 mM BDM, 1 mM benzamidine-HCL, 0.1 mM PMSF, 1 μg/ml leupeptin, 1 μg/ml pepstatin, 1% (v/v) Trixon X-100) and adjusted to 10 mM EDTA. Minced preparations were centrifuged for 8 min at 3000xg and the supernant was decanted. Resulting pellets were resuspended in 10 volumes of SRB plus 1% Triton X-100 and subjected to 6 strokes in a Duall tissue homogenizer and centrifuged as above. Pellets were gently resuspended and centrifuged as above twice more in SRB including 1% (v/v) Triton X-100, twice in SRB lacking Triton X-100 and once in K-60 buffer (60 mM KCL, 20 mM MOPS, 2 mM MgCl2 pH 7) before being resuspended in 5 volumes of K-60.
(§2) Detection of HNO modifications by Modified Biotin Switch. HNO modified thiols were detected using a modification to the standard biotin switch protocol. In brief, 100 μg of rat myofibrils/treatment were diluted to 0.5 μg/μl in HEN (250 mM HEPES pH 7.7, 1 mM EDTA and 0.1 mM neocuproine) including 0.1% (w/v) SDS and exposed to a treatment for 10 min at 37° C. which was subsequently removed by acetone precipitation. Remaining free thiols were blocked by addition of 300 μl of HEN including 2.5% (w/v) SDS and 20 mM N-ethylmaleimide (NEM), incubated for 20 min at 50° C. Excess NEM was removed by acetone precipitation. HNO and/or NO modified thiols were reduced using 5 mM DTT or 1 mM ascorbate in 150 μl of HEN including 1% (w/v) SDS and biotinylated with 0.8 mM Biotin-HPDP (Pierce) for one hour at room temperature. Excess biotin-HPDP was removed by acetone precipitation (2 volumes) and resultant pellets were carefully washed with an additional volume of acetone. Biotinylated proteins were resuspended in 1 ml of HEN including 0.1% (w/v) SDS and captured by incubation with 15 μl of washed, packed Ultralink Immobilized Streptavidin (Pierce) for one hour at room temperature. Beads were washed four times in 50 bead volumes of HEN (twice including 0.1% (w/v) SDS, twice including 600 mM NaCl) and twice with EB (20 mM HEPES pH 7.7, 100 mM NaCl, 1 mM EDTA). Captured proteins were eluted with 40 μl of EB containing 100 mM DTT, mixed with 15 μl of 4×LDS sample buffer, boiled, separated by SDS PAGE and silver stained. For MS studies, biotinylated proteins were digested overnight with trypsin (Promega) prior to capture and washed ten additional times with 5 mM ammonium bicarbonate/20% acetonitrile before being eluted in 100 μl of wash buffer including 100 mM DTT as described. Captured peptides were identified using a LTQ linear ion trap tandem mass spectrometer (ThermoFinnigan, Waltham Mass. USA) with data searched against the rat IPI primary sequence database using the sorcerer searching platform (sagen).
(§3) To investigate the modifications that underlie the difference seen in the functional effect of these two compounds we performed an analysis on the myofilament proteins, using a modified biotin-switch method, followed by mass spectrometry for identification (FIG. 3). Following treatment with HNO or control compounds, unmodified cysteines are blocked with NEM before treatment with a reducing agent and labeling the exposed cysteines with a biotin group (FIG. 3A). In this case, 5 mM DTT was used as the reducing agent because it was shown in the physiological studies to reverse the effect of the treatment. […] Tryptic or chymotryptic peptides containing the modified cysteine residues were captured and identified by LC/MS/MS. […] To parse the role of candidate sites of modification between these two effects a comparative proteomics experiment was designed where modifications specific to NCA treatment would be considered candidates for the Ca^2+ effect while sites identified in common between AS and NCA could be candidates for the force effect (FIG. 3C). […]

tropomyosin (α) = target: T2, tropomyosin (α) (Rattus norvegicus, UniProt P04692); assay: as above; assay type: biochemical
T2 construct: Rat myofibrillar preparations, as described in [7], were obtained from frozen ventricles (Pel Freez Biologicals); tissue Pel Freez Biologicals; host or cells: myofibrils from frozen rat ventricles
Method: as §1, §2, §3

T2 sequence (P04692 whole entry): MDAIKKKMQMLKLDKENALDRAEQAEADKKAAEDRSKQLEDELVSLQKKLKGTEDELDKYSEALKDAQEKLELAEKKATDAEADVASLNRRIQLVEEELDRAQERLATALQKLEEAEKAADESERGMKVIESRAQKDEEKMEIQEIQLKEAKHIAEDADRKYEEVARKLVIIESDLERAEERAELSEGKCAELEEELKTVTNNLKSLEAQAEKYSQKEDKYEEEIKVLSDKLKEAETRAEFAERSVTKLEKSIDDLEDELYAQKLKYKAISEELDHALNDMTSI
T1 sequence (P02564 whole entry): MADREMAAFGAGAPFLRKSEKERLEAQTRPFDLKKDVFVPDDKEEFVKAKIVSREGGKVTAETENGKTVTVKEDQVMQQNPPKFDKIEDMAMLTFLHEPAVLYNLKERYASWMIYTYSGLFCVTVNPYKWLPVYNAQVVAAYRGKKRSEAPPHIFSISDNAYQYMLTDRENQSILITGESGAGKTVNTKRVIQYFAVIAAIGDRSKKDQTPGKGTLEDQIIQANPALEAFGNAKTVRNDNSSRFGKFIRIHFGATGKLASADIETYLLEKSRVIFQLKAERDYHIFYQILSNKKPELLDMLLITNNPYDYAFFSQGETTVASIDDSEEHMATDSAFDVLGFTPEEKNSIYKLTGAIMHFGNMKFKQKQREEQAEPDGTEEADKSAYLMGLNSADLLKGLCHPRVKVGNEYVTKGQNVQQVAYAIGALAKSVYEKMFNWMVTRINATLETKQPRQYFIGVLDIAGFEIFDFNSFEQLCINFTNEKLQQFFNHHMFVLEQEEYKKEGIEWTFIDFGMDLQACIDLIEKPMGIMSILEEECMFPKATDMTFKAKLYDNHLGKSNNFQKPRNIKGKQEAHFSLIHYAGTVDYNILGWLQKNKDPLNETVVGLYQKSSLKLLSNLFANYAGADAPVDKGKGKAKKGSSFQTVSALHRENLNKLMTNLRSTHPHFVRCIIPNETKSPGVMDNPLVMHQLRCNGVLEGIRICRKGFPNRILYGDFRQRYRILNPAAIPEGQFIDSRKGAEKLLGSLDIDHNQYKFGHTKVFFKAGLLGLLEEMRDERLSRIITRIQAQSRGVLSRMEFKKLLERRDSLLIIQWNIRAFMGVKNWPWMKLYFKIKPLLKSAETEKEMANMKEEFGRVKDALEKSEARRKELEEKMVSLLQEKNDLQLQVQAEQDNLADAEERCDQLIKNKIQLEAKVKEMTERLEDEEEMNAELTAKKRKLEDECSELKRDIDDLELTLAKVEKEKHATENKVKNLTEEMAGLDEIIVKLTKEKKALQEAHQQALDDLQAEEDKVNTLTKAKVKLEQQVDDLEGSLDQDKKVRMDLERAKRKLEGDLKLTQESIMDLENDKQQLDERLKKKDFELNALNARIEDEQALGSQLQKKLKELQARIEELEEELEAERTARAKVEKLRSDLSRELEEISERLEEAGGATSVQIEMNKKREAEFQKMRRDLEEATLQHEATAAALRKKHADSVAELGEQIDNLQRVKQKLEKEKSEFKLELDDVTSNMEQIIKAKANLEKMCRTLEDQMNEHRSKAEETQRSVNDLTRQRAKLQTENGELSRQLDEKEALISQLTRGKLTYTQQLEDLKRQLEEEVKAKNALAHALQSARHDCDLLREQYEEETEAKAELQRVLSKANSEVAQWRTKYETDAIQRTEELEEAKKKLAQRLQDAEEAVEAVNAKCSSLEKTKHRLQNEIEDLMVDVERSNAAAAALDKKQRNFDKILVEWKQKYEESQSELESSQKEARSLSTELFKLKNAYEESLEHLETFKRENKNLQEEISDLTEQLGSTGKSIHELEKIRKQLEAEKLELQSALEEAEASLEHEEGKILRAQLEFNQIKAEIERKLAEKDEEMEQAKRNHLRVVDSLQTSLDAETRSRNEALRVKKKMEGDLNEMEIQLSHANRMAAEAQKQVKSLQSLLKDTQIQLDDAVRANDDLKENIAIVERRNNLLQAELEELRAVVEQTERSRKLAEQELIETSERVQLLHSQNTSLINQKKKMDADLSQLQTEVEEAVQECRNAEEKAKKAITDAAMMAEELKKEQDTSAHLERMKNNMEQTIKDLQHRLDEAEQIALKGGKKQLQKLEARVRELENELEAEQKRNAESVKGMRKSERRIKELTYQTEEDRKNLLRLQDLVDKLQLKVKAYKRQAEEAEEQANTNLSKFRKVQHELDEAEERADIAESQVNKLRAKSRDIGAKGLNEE

CC(=O)OC1(N=O)CCCCC1 [NCA, 1-nitrosocyclohexylacetate]
Hill (skinned trabeculae): 2.39±1.02
number of independent observations of peptide (myosin heavy chain β; Cys 947, tryptic peptide KLEDECELKR, 25 μM NCA or 500 μM AS): 3
Position of modified Cys (myosin heavy chain β; myosin heavy chain (β), Table 2): 947(β)*
number of independent observations of peptide (tropomyosin (α); Cys 190, tryptic peptide CLELEEELKTVTNNLK, 25 μM NCA or 500 μM AS): 3^a
Position of modified Cys (tropomyosin (α); α-tropomyosin, Table 2): 190
